According to patent US20240344145A1, “PHARMACOGENOMICS SCORE TO MAKE DECISIONS ON THERAPY AUGMENTATION IN AML” (University of Florida Research Foundation, Incorporated, priority 2021, published 2024):

System: ara-C metabolic pathway genes
Experiment: Association of ara-C pathway SNP genotypes with MRD1, EFS and OS in AML02 (logistic regression and Cox models; also within LDAC and HDAC arms)
Parameters: species or system human
Settings: within arm of AML02
Description: Genomic DNA from patients enrolled in the multi-site St. Jude AML02 trial was genotyped for 155 SNPs in 16 genes of relevance to ara-C pharmacology using sequenom iPlex platform that uses MALDI-TOF based chemistry at University of Minnesota, Biomedical Genomics Center. SNPs were selected based on previously reported studies. For SNPs lacking literature on genetic variation, SNPs were selected to capture LD blocks (European and African ancestry) on a gene. Of 155 SNPs, 1 SNP was excluded due to low call rate (<90%), 47 SNPs were excluded due to minimum allele frequency of less than 5%, 11 SNPs were excluded due to high LD (r^2>0.9) with other SNPs; two SNPs were excluded because of deviation from Hardy-Weinberg equilibrium. Genotype for the COG-AAML0531 cohort for the selected SNPs was obtained using sequenom platform or TaqMan genotyping assays, and for a few SNPs was extracted from the data available on Illumina 2.5 Omni array. Genotype calls from multiple platforms were confirmed across multiple samples randomly collected from the cohort.
SNP genotype groups in three different modes of inheritance (additive, dominant, and recessive) were tested for association with MRD1 using logistic regression models. Odds ratio (OR) and 95% confidence interval (CI) were calculated for each test. SNPs with association P-value<0.05 were considered significant. Cox-proportional hazard models were used to evaluate association of genotype groups with EFS or OS. Hazard ratio (HR) and 95% CI were calculated for each test. p-value<0.05 was considered statistically significant. Given initial risk group assignments are well-established prognostic factors associated with outcome, outcome association analysis of SNPs with and without adjusting for risk group was also performed to identify SNPs that are associated with outcome independent of risk group.
SNPs with p<0.15 in risk-adjusted univariate evaluation with clinical endpoints (MRD1, EFS, and OS) were tested for all possible combinations with a maximum of three SNPs per model in multivariable logistic regression models for association with MRD1 and Cox-proportional hazard models for association with EFS and OS. Analysis for up to 3 SNP combinations was restricted due to computational challenges as increasing the maximum number of SNPs per model drastically increases the number of models as 1000 permutations were run for each model. Models were ordered according to their Bayesian Information Criterion (BIC) and weight in favor of each model. One thousand permutation tests were performed for each model to determine statistical significance. The six unique SNPs from the most significant models for EFS and MRD1 were included in the development of the ACS10 score as described in the results section.
The multicenter AML02 clinical trial randomly assigned subjects to receive low dose ara-C (LDAC: 100 mg/m^2; n=91 patients) or high dose ara-C(HDAC: 3 g/m^2; n=75 patients) in combination with daunorubicin and etoposide as the first course of chemotherapy as described above in patient cohort section. Thus, the association of SNPs with outcome within each arm separately was also explored (Table 5).

[1] = rs4917384 (NT5C2, WT C, VAR T), MOI D
[2] = rs4980345 (SLC28A1, WT G, VAR A), MOI A
[3] = rs6552622 (DCTD, WT C, VAR G), MOI D
[4] = rs6742272 (RRM2, WT C, VAR G), MOI A
[5] = rs6834938 (DCTD, WT C, VAR T), MOI R
[6] = rs6946062 (NT5C3, WT T, VAR C), MOI D
[7] = rs7533657 (CTPS1, WT C, VAR T), MOI R
[8] = rs7543016 (CMPK1, WT C, VAR G), MOI R
[9] = rs7776847 (NT5C3, WT G, VAR A), MOI A
[10] = rs7874528 (SLC28A3, WT G, VAR T), MOI D
[11] = rs10252880 (NT5C3, WT G, VAR C), MOI A
[12] = rs10767827 (RRM1, WT G, VAR T), MOI D
[13] = rs10786736 (NT5C2, WT G, VAR C), MOI D
[14] = rs10916819 (CDA, WT A, VAR G), MOI D
[15] = rs11140525 (SLC28A3, WT G, VAR A), MOI A
[16] = rs11191558 (NT5C2, WT G, VAR A), MOI D
[17] = rs11737887 (DCTD, WT T, VAR C), MOI A
[18] = rs12554292 (SLC28A3, WT C, VAR T), MOI D
[19] = rs12806698 (RRM1, WT C, VAR A), MOI D
[20] = rs17103168 (CMPK1, WT A, VAR G), MOI D

For `Nc1ccn([C@@H]2O[C@H](CO)[C@@H](O)[C@@H]2O)c(=O)n1` [HDAC, cytarabine], the “EFS HR (95% CI)” value [1] was 0.74 (0.51-1.08), the “MRD1 OR (95% CI)” value [1] was 0.73 (0.44-1.2) and the “OS HR (95% CI)” value [1] was 0.61 (0.38-0.98). The “EFS HR (95% CI)” value [2] was 0.94 (0.47-1.87), the “MRD1 OR (95% CI)” value [2] was 0.55 (0.19-1.62) and the “OS HR (95% CI)” value [2] was 1.3 (0.64-2.64). For the same compound, the “EFS HR (95% CI)” value [3] was 1.71 (1.15-2.53), the “MRD1 OR (95% CI)” value [3] was 1.06 (0.56-1.99) and the “OS HR (95% CI)” value [3] was 1.84 (1.19-2.85). The “EFS HR (95% CI)” value [4] was 1.09 (0.68-1.76), the “MRD1 OR (95% CI)” value [4] was 0.86 (0.44-1.68) and the “OS HR (95% CI)” value [4] was 1.09 (0.62-1.92). The “EFS HR (95% CI)” value [5] was 0.7 (0.34-1.44), the “MRD1 OR (95% CI)” value [5] was 1.08 (0.49-2.38) and the “OS HR (95% CI)” value [5] was 0.86 (0.42-1.79). For the same compound, the “EFS HR (95% CI)” value [6] was 1.13 (0.78-1.63), the “MRD1 OR (95% CI)” value [6] was 0.96 (0.59-1.56) and the “OS HR (95% CI)” value [6] was 1.47 (0.92-2.35). For the same compound, the “EFS HR (95% CI)” value [7] was 1.76 (1.14-2.7), the “MRD1 OR (95% CI)” value [7] was 1.31 (0.67-2.57) and the “OS HR (95% CI)” value [7] was 1.97 (1.22-3.18). For the same compound, the “EFS HR (95% CI)” value [8] was 0.69 (0.38-1.25), the “MRD1 OR (95% CI)” value [8] was 1.29 (0.69-2.42) and the “OS HR (95% CI)” value [8] was 0.65 (0.32-1.35). For the same compound, the “EFS HR (95% CI)” value [9] was 0.83 (0.46-1.5), the “MRD1 OR (95% CI)” value [9] was 1.23 (0.57-2.65) and the “OS HR (95% CI)” value [9] was 0.71 (0.34-1.47). For the same compound, the “EFS HR (95% CI)” value [10] was 1.24 (0.85-1.81), the “MRD1 OR (95% CI)” value [10] was 0.91 (0.52-1.61) and the “OS HR (95% CI)” value [10] was 1.41 (0.91-2.17). The “EFS HR (95% CI)” value [11] was 0.99 (0.62-1.57), the “MRD1 OR (95% CI)” value [11] was 1.18 (0.62-2.27) and the “OS HR (95% CI)” value [11] was 0.74 (0.42-1.32). The “EFS HR (95% CI)” value [12] was 1.03 (0.71-1.49), the “MRD1 OR (95% CI)” value [12] was 0.55 (0.31-0.97) and the “OS HR (95% CI)” value [12] was 1.04 (0.68-1.61). For the same compound, the “EFS HR (95% CI)” value [13] was 0.92 (0.6-1.4), the “MRD1 OR (95% CI)” value [13] was 0.9 (0.51-1.59) and the “OS HR (95% CI)” value [13] was 0.92 (0.56-1.52). The “EFS HR (95% CI)” value [14] was 1.08 (0.75-1.56), the “MRD1 OR (95% CI)” value [14] was 1.87 (1.09-3.21) and the “OS HR (95% CI)” value [14] was 1.33 (0.83-2.12). The “EFS HR (95% CI)” value [15] was 0.73 (0.44-1.21), the “MRD1 OR (95% CI)” value [15] was 0.44 (0.21-0.94) and the “OS HR (95% CI)” value [15] was 0.87 (0.49-1.56). The “EFS HR (95% CI)” value [16] was 0.87 (0.56-1.37), the “MRD1 OR (95% CI)” value [16] was 0.93 (0.53-1.66) and the “OS HR (95% CI)” value [16] was 0.84 (0.48-1.44). The “EFS HR (95% CI)” value [17] was 0.96 (0.49-1.89), the “MRD1 OR (95% CI)” value [17] was 2.74 (1.06-7.06) and the “OS HR (95% CI)” value [17] was 0.95 (0.43-2.12). The “EFS HR (95% CI)” value [18] was 1.15 (0.75-1.76), the “MRD1 OR (95% CI)” value [18] was 1.92 (1.04-3.56) and the “OS HR (95% CI)” value [18] was 1.4 (0.87-2.24). For the same compound, the “EFS HR (95% CI)” value [19] was 0.64 (0.43-0.96), the “MRD1 OR (95% CI)” value [19] was 0.89 (0.54-1.45) and the “OS HR (95% CI)” value [19] was 0.62 (0.37-1.02). For the same compound, the “EFS HR (95% CI)” value [20] was 1.05 (0.73-1.51), the “MRD1 OR (95% CI)” value [20] was 0.62 (0.37-1.04) and the “OS HR (95% CI)” value [20] was 0.9 (0.58-1.41).
